For assay [1], the target named is Neuronal acetylcholine receptor; alpha4/beta2 (Rattus norvegicus, UniProt P09483+P12390). Description: Displacement of [3H]epibatidine from alpha-4-beta-2 nAChR in rat brain cortex membrane. It counts as cell membranes.
In assay [2] the target is Neuronal acetylcholine receptor subunit alpha-7 (Rattus norvegicus, UniProt Q05941). Description: Displacement of [3H]alpha-Bungarotoxin from alpha-7 nAChR in rat brain cortex membranes. Type of assay: cell membranes, Membrane.
Chain of Neuronal acetylcholine receptor subunit alpha-7 (Q05941 whole entry): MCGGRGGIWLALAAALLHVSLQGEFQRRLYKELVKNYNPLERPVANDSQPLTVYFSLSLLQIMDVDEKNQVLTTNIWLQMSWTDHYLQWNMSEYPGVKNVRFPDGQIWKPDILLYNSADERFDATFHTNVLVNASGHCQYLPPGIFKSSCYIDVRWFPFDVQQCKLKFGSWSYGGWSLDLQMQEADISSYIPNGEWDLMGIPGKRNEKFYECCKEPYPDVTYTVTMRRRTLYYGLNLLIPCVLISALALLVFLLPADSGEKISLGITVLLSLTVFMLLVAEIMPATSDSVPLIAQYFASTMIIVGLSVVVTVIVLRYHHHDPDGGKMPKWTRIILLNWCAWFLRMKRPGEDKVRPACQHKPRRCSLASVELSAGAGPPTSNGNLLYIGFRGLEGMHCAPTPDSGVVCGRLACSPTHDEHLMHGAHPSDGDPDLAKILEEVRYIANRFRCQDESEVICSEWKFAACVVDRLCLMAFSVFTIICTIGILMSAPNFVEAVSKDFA
The target of assay [3] is T1, Adrenergic receptor alpha-2 (Rattus norvegicus, UniProt P22086+P19328+P22909).
T1 sequence (P22086 whole entry): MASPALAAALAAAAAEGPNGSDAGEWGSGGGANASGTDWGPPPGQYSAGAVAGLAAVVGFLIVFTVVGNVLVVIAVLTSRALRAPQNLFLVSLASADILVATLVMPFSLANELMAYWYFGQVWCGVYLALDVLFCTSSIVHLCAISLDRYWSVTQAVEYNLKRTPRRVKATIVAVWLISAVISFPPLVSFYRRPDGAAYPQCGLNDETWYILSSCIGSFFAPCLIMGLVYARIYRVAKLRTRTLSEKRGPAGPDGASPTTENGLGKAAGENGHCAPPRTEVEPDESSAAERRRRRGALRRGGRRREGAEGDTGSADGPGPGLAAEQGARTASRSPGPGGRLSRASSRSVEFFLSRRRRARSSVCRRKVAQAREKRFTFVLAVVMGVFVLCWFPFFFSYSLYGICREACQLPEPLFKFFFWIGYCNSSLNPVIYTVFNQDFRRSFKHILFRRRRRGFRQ
T1 sequence (P19328 whole entry): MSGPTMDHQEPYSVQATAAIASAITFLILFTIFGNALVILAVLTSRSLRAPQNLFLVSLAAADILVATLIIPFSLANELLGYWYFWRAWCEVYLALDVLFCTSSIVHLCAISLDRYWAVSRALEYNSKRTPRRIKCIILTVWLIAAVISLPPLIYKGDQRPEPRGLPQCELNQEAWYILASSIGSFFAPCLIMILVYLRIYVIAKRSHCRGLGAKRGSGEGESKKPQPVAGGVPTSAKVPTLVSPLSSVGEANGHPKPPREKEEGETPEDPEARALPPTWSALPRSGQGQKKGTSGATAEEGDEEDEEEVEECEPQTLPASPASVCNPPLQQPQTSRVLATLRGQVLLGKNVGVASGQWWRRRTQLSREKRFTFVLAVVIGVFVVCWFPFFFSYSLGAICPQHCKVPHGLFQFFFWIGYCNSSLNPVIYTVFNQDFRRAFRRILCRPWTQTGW
T1 sequence (P22909 whole entry): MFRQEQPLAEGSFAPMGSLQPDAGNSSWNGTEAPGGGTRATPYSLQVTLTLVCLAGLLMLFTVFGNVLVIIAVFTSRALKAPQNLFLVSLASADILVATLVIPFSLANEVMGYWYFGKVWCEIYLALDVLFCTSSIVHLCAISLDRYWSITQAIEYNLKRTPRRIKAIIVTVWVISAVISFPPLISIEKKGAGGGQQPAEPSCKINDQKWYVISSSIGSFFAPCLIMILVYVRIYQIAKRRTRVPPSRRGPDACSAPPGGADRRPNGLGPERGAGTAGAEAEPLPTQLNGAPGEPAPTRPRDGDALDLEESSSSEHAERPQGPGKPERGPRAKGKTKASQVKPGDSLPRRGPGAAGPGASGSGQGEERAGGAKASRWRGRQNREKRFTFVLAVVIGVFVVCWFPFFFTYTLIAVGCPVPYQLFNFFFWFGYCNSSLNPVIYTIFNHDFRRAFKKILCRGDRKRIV
Nature of the assay: Displacement of [3H]RS 79948-197 from rat cortex adrenergic alpha-2 receptor. Background: Loss of bound radioactivity is the signal in a displacement assay; it reports binding, not function.

In ChEMBL document CHEMBL1139700 (Bioorg Med Chem Lett, 2006) one finds Ki data, which are given here for four molecules.

pKi: −log10 of the molar value.

Chain of Neuronal acetylcholine receptor; alpha4/beta2 (P09483 whole entry): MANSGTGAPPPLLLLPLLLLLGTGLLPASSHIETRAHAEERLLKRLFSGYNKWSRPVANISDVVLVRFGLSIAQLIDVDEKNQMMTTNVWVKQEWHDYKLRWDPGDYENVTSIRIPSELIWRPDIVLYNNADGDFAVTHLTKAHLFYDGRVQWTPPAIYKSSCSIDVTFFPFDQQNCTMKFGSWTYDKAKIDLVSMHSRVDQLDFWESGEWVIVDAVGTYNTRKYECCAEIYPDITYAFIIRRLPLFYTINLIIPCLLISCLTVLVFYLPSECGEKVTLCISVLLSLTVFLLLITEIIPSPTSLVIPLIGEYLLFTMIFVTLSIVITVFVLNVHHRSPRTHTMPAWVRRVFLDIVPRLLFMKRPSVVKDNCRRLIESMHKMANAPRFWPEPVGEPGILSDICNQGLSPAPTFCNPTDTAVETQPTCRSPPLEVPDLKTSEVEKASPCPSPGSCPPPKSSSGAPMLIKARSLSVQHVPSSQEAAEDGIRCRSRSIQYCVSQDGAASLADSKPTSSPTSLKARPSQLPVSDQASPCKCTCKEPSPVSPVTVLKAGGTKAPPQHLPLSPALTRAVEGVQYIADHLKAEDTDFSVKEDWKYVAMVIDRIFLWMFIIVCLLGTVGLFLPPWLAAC
Chain of Neuronal acetylcholine receptor; alpha4/beta2 (P12390 whole entry): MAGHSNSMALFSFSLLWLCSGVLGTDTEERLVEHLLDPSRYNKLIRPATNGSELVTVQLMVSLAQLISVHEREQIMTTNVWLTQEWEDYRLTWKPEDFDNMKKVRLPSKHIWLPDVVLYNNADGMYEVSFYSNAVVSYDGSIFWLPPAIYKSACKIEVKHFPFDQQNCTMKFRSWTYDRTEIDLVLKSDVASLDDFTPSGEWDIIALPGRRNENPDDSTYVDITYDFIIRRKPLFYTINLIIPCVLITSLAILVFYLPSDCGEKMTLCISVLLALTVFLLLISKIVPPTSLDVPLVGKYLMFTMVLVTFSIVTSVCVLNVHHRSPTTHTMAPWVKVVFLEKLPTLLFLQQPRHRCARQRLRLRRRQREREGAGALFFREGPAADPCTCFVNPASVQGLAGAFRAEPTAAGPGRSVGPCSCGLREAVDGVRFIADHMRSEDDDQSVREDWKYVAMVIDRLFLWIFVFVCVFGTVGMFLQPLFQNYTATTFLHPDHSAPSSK

By pKi is commonly meant the Ki on a negative log10 scale, so that one unit is a factor of ten. A high value points to a low Ki. With `CN1CCC[C@H]1[C@H]1CNC(=O)O1`, the values for the pKi in assay [1] and in assay [2] were 4.21 and 3.93, respectively.

As for `CN1CCC[C@@H]1[C@@H]1CNC(=O)O1`, the pKi in assay [1] is 4.10; in assay [2] it was 3.47.

As usually defined, the Ki is the dissociation constant of the complex between target and ligand, obtained from inhibition or displacement. A low value points to a stronger hold on the target. `CN1CCC[C@H]1[C@@H]1COc2ccccc2O1.Cl`: in assay [3], the inhibition constant Ki is 0.77 µM. The values for the pKi in assay [1] and in assay [2] were 6.21 and 4.92, respectively.

Take `CN1CCC[C@@H]1[C@H]1COc2ccccc2O1.Cl`: the Ki in assay [3] turned out to be 0.47 µM. Besides, the results for the negative-log Ki (pKi) in assay [1] and in assay [2] were 5.59 and 4.35, respectively.
